PubChem BioAssay (NCI)
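These data come from cells grown in 96-well plates and exposed to compound for 48 hours at five concentrations. The concentration for 50% growth inhibition is given as GI50. TGI: concentration producing complete growth inhibition.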

Key:
Assay in all cases: NCI tumour cell line growth inhibition, 48 h
KM12 colon = tested on: KM12 colon
SK-MEL-5 melanoma = tested on: SK-MEL-5 melanoma
HCT-15 colon = tested on: HCT-15 colon
MDA-MB-231 breast = tested on: MDA-MB-231 breast
TK-10 renal = tested on: TK-10 renal
COLO 205 colon = tested on: COLO 205 colon
NCI/ADR-RES ovarian = tested on: NCI/ADR-RES ovarian
UACC-62 melanoma = tested on: UACC-62 melanoma
UO-31 renal = tested on: UO-31 renal
HT29 colon = tested on: HT29 colon
LOX IMVI melanoma = tested on: LOX IMVI melanoma
SNB-19 CNS = tested on: SNB-19 CNS
MALME-3M melanoma = tested on: MALME-3M melanoma
DU-145 prostate = tested on: DU-145 prostate
ACHN renal = tested on: ACHN renal
SNB-75 CNS = tested on: SNB-75 CNS
UACC-257 melanoma = tested on: UACC-257 melanoma
CAKI-1 renal = tested on: CAKI-1 renal
SK-MEL-2 melanoma = tested on: SK-MEL-2 melanoma
MCF7 breast = tested on: MCF7 breast
A549 NSCLC = tested on: A549 NSCLC
SK-OV-3 ovarian = tested on: SK-OV-3 ovarian
HL-60(TB) leukemia = tested on: HL-60(TB) leukemia
SK-MEL-28 melanoma = tested on: SK-MEL-28 melanoma
OVCAR-5 ovarian = tested on: OVCAR-5 ovarian
BT-549 breast = tested on: BT-549 breast
EKVX NSCLC = tested on: EKVX NSCLC
NCI-H522 lung = tested on: NCI-H522 lung
HS 578T breast = tested on: HS 578T breast
OVCAR-4 ovarian = tested on: OVCAR-4 ovarian
M14 melanoma = tested on: M14 melanoma
786-0 renal = tested on: 786-0 renal
OVCAR-8 ovarian = tested on: OVCAR-8 ovarian
NCI-H460 lung = tested on: NCI-H460 lung
SR leukemia = tested on: SR leukemia
MDA-MB-435 = tested on: MDA-MB-435
OVCAR-3 ovarian = tested on: OVCAR-3 ovarian
SN12C renal = tested on: SN12C renal
U251 CNS = tested on: U251 CNS
HCT-116 colon = tested on: HCT-116 colon
HOP-92 NSCLC = tested on: HOP-92 NSCLC
A498 renal = tested on: A498 renal
NCI-H23 lung = tested on: NCI-H23 lung
SF-539 CNS = tested on: SF-539 CNS
MOLT-4 leukemia = tested on: MOLT-4 leukemia
PC-3 prostate = tested on: PC-3 prostate
HCC-2998 colon = tested on: HCC-2998 colon
SF-295 CNS = tested on: SF-295 CNS
RXF 393 renal = tested on: RXF 393 renal
HOP-62 NSCLC = tested on: HOP-62 NSCLC
SW-620 colon = tested on: SW-620 colon
IGROV1 ovarian = tested on: IGROV1 ovarian
SF-268 CNS = tested on: SF-268 CNS
NCI-H226 lung = tested on: NCI-H226 lung
K-562 leukemia = tested on: K-562 leukemia
RPMI-8226 leukemia = tested on: RPMI-8226 leukemia

COc1ccc(C(=O)c2no[n+]([O-])c2C(=O)c2ccc(OC)cc2)cc1
GI50 (KM12 colon): 8.91 µM | TGI (KM12 colon): 22.4 µM | GI50 (SK-MEL-5 melanoma): 12.6 µM | TGI (SK-MEL-5 melanoma): 25.1 µM | GI50 (HCT-15 colon): 3.98 µM | TGI (HCT-15 colon): 14.9 µM | GI50 (MDA-MB-231 breast): 2.77 µM | TGI (MDA-MB-231 breast): 8.16 µM | GI50 (TK-10 renal): 1.41 µM | TGI (TK-10 renal): 2.82 µM | GI50 (COLO 205 colon): 1.77 µM | TGI (COLO 205 colon): 3.37 µM | GI50 (NCI/ADR-RES ovarian): 10.7 µM | TGI (NCI/ADR-RES ovarian): 28.7 µM | GI50 (UACC-62 melanoma): 10.3 µM | TGI (UACC-62 melanoma): 23.9 µM | GI50 (UO-31 renal): 0.588 µM | TGI (UO-31 renal): 1.17 µM | GI50 (HT29 colon): 2.32 µM | GI50 (LOX IMVI melanoma): 1.14 µM | TGI (LOX IMVI melanoma): 2.53 µM | GI50 (SNB-19 CNS): 42.2 µM | TGI (SNB-19 CNS): > 100 µM | GI50 (MALME-3M melanoma): 0.82 µM | TGI (MALME-3M melanoma): 3.07 µM | GI50 (DU-145 prostate): 14.5 µM | TGI (DU-145 prostate): 27.6 µM | GI50 (ACHN renal): 1.9 µM | TGI (ACHN renal): 3.4 µM | GI50 (SNB-75 CNS): 3.03 µM | TGI (SNB-75 CNS): 9.26 µM | GI50 (UACC-257 melanoma): 3.46 µM | TGI (UACC-257 melanoma): 10.4 µM | GI50 (CAKI-1 renal): 1.9 µM | TGI (CAKI-1 renal): 4 µM | GI50 (SK-MEL-2 melanoma): 6.59 µM | TGI (SK-MEL-2 melanoma): 23.1 µM | GI50 (MCF7 breast): 4.42 µM | TGI (MCF7 breast): 18.2 µM | GI50 (A549 NSCLC): 17.2 µM | TGI (A549 NSCLC): 34.4 µM | GI50 (SK-OV-3 ovarian): 18 µM | TGI (SK-OV-3 ovarian): 32 µM | GI50 (HL-60(TB) leukemia): 2.08 µM | TGI (HL-60(TB) leukemia): 4.37 µM | GI50 (SK-MEL-28 melanoma): 9.03 µM | TGI (SK-MEL-28 melanoma): 22.1 µM | GI50 (OVCAR-5 ovarian): 10.6 µM | TGI (OVCAR-5 ovarian): 25.7 µM | GI50 (BT-549 breast): 4.84 µM | TGI (BT-549 breast): 17.2 µM | GI50 (EKVX NSCLC): 7.54 µM | TGI (EKVX NSCLC): 22.5 µM | GI50 (NCI-H522 lung): 0.205 µM | TGI (NCI-H522 lung): 0.429 µM | GI50 (HS 578T breast): 17.8 µM | TGI (HS 578T breast): 51.4 µM | GI50 (OVCAR-4 ovarian): 2.36 µM | TGI (OVCAR-4 ovarian): 6.26 µM | GI50 (M14 melanoma): 3.5 µM | TGI (M14 melanoma): 11.7 µM | GI50 (786-0 renal): 2.62 µM | TGI (786-0 renal): 6.32 µM | GI50 (OVCAR-8 ovarian): 2.67 µM | TGI (OVCAR-8 ovarian): 6.6 µM | GI50 (NCI-H460 lung): 17.2 µM | TGI (NCI-H460 lung): 33.5 µM | GI50 (SR leukemia): 0.726 µM | TGI (SR leukemia): 3.22 µM | GI50 (MDA-MB-435): 6.72 µM | TGI (MDA-MB-435): 22.9 µM | GI50 (OVCAR-3 ovarian): 1.87 µM | TGI (OVCAR-3 ovarian): 3.31 µM | GI50 (SN12C renal): 9.06 µM | TGI (SN12C renal): 22.1 µM | GI50 (U251 CNS): 2.53 µM | TGI (U251 CNS): 7.07 µM | GI50 (HCT-116 colon): 1.69 µM | TGI (HCT-116 colon): 3.05 µM | GI50 (HOP-92 NSCLC): 1.72 µM | TGI (HOP-92 NSCLC): 3.96 µM | GI50 (A498 renal): 15.6 µM | TGI (A498 renal): 29.2 µM | GI50 (NCI-H23 lung): 2.94 µM | TGI (NCI-H23 lung): 8.74 µM | GI50 (SF-539 CNS): 2.19 µM | TGI (SF-539 CNS): 4.97 µM | GI50 (MOLT-4 leukemia): 1.93 µM | TGI (MOLT-4 leukemia): 4.25 µM | GI50 (PC-3 prostate): 5.21 µM | TGI (PC-3 prostate): 16.8 µM | GI50 (HCC-2998 colon): 17.5 µM | TGI (HCC-2998 colon): 31.6 µM | GI50 (SF-295 CNS): 17.8 µM | TGI (SF-295 CNS): 34.7 µM | GI50 (RXF 393 renal): 2.25 µM | TGI (RXF 393 renal): 5.93 µM | GI50 (HOP-62 NSCLC): 15.2 µM | TGI (HOP-62 NSCLC): 29.3 µM | GI50 (SW-620 colon): 1.89 µM | TGI (SW-620 colon): 3.42 µM | GI50 (IGROV1 ovarian): 2.3 µM | TGI (IGROV1 ovarian): 5.53 µM | GI50 (SF-268 CNS): 3.11 µM | TGI (SF-268 CNS): 7.98 µM | GI50 (NCI-H226 lung): 25.8 µM | TGI (NCI-H226 lung): > 64.3 µM | GI50 (K-562 leukemia): 2.36 µM | TGI (K-562 leukemia): 7.17 µM | GI50 (RPMI-8226 leukemia): 2.06 µM | TGI (RPMI-8226 leukemia): 4.85 µM
